Columns and labels:
recombinant CSN complex = test: Peptide array screen of C-CSNAP peptides with recombinant CSN (rCSN^WT); format: binding; settings: for Average fold change, intensities as fold of C-CSNAP (A1): rCSN^WT on INTAVIS Celluspots array, anti-CSN3 and HRP secondary antibody, average of six replicates (three independent experiments in duplicates); for Average fold change: peptide array with rCSN, average of 3 experiments, left and right (n = 6), fold of C-CSNAP (A1);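 as to all read-outs here: densitometric signal of CSN bound to each synthesized peptide spot, with an antibody-only array lacking CSN run to exclude non-specific binding, higher values meaning stronger binding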
Experimental: To generate an optimized C-CSNAP peptide, we used the peptide array methodology. The array was designed to screen for the optimal peptide length, sequence, and stability (Fig 3A). A recombinant CSN complex was expressed, purified, and screened for binding to the peptide array by using an anti-CSN3 antibody. To rule out non-specific binding of the probing antibody, a control experiment was carried out without the addition of the CSN complex (Fig 3A right panel).
C-CSNAP peptide and its derivatives were synthesized on a microarray. The array was blocked and incubated with or without the COP9 signalosome complex (CSN) and probed using an anti-CSN3 antibody and HRP-conjugated secondary antibody. To assess non-specific binding of the antibodies to the array, anti-CSN3 and anti-GAR–HRP were used without the addition of the CSN. Signal intensity of each spot was measured and normalized to the intensity of the spot of C-CSNAP (A1). Measured values for each spot were averaged from six arrays and plotted with SEM. […] (A) A representative image of the peptide array (left) and the background (right). (B) Elongation of the C-terminal 16 amino acids (green) with one residue at a time based on the full-length sequence. […] (F) Single D-amino acid substitution at various positions.
(§1) Intensity values are normalized to the intensity of the 16AA C-CSNAP peptide (A1) on each array from three independent experiments in duplicates, and averages from the six replicates are calculated with SEM.
(§2) Optimization of C-CSNAP sequence for enhanced binding to recombinant CSN^ΔCSNAP was screened by printing the modified sequences of CSNAP or C-CSNAP (Phe to Trp, Asp to Glu, Ala screen, D-amino acid screen, N-α-methylation, and Aib incorporation on INTAVIS Celluspots array [2 × 384spots]). The array was blocked with 5% skim milk in TBS-0.5% Tween 20 (TBS-T) for 4 h at room temperature, washed three times in TBS-T, and then incubated with 0.5 μM CSN^ΔCSNAP in 5% milk–TBS-T. Bound CSN^ΔCSNAP was visualized by incubating with anti-CSN3 (ab79698) antibody (1:10,000, overnight) and goat-anti-rabbit-HRP secondary antibody (1:10,000, 1 h).

CSN^ΔCSNAP complex = test: Peptide array screen of C-CSNAP peptides with rCSN^ΔCSNAP; format: binding; settings: average of 5 experiments;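 also: Array-printed peptides incubated with 0.5 µM CSN^ΔCSNAP, bound complex detected by anti-CSN3 antibody plus HRP-linked secondary, spot intensity expressed relative to the parent reference peptide spot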
Experimental: Peptide array screen of modified C-CSNAP peptides. C-CSNAP peptide and its derivatives were printed on a microarray. The array was blocked and incubated with or without the CSN∆CSNAP complex and probed using an anti-CSN3 antibody and HRP-conjugated secondary antibody. To assess non-specific binding of the antibodies to the array, anti-CSN3 and anti-GAR-HRP were used without the addition of the COP9 signalosome complex (CSN). Signal intensity of each spot was measured and normalized to the intensity of the spot of C-CSNAP (A1). Measured values for each spot were averaged from six arrays and plotted with standard errors SEM.
as §1, §2

[1] = peptide array, rCSN^ΔCSNAP, left and right spots
[2] = peptide array with rCSN^ΔCSNAP, left and right (n = 10), fold of C-CSNAP (A1)

Substance | Average fold change, intensities as fold of C-CSNAP (A1) (recombinant CSN complex) | Average fold change (CSN^ΔCSNAP complex; [1]) | Average fold change (recombinant CSN complex) | further results
DWFNDFEDLWDDDDIQ [Position C18, C-CSNAP, Phe to Trp substitution F43,51W] | 0.5534 fold of C-CSNAP (A1) | 1.2485 fold of C-CSNAP (A1) |  | 
GPYVDLDEAGGSTGLLMDLAANEKAVHADFFNDFEDLFDDDDIQ [B 5, CSNAP residues 14-57] | 1.1075 fold of C-CSNAP (A1) |  |  | Average fold change (CSN^ΔCSNAP complex; [2]): 0.9816 fold
DFFNDFEELFDEDDIQ [Position D22, C-CSNAP, Asp to Glu substitution D49,53E] | 0.6642 fold of C-CSNAP (A1) | 1.3252 fold of C-CSNAP (A1) |  | 
DFFNEFEELFEEEEIQ [D46,49,52,53,54,55E] |  | 1.0133 fold of C-CSNAP (A1) | 0.5470 fold | 
DFFNEFEDLFDEDDIQ [Position D18, C-CSNAP, Asp to Glu substitution D46,53E] | 0.5559 fold of C-CSNAP (A1) | 1.0532 fold of C-CSNAP (A1) |  | 
EFFNDFEDLFDDDEIQ [Position D15, C-CSNAP, Asp to Glu substitution D42,55E] | 0.7777 fold of C-CSNAP (A1) | 1.0098 fold of C-CSNAP (A1) |  | 
DFFNDFEDLWDDDDIQ [Position C15, C-CSNAP, Phe to Trp substitution F51W] | 0.8159 fold of C-CSNAP (A1) | 1.0302 fold of C-CSNAP (A1) |  | 
DFFNDFEDLFEEDEIQ [D52,53,55E] |  | 1.3267 fold of C-CSNAP (A1) | 0.6917 fold | 
EFFNEFEELFEEEDIQ [D42,46,49,52,53,55E] |  | 1.2784 fold of C-CSNAP (A1) | 0.4075 fold | 
KPAVDEMFPEGAGPYVDLDEAGGSTGLLMDLAANEKAVHADFFNDFEDLFDDDDIQ [Position B17, CSNAP residues 2-57] | 1.0902 fold of C-CSNAP (A1) |  |  | Average fold change (CSN^ΔCSNAP complex; [2]): 1.3898 fold
EFFNEFEDLFEDDDIQ [E 5, C-CSNAP, Asp to Glu substitution D42,46,52E] | 0.8794 fold of C-CSNAP (A1) | 1.0465 fold of C-CSNAP (A1) |  | 
DFFNDFEDLFEDEDIQ [E 2, C-CSNAP, Asp to Glu substitution D52,54E] | 0.8694 fold of C-CSNAP (A1) | 0.9955 fold of C-CSNAP (A1) |  | 
EFFNDFEDLFEEDEIQ [D42,52,53,55E] |  | 1.0660 fold of C-CSNAP (A1) | 0.6502 fold | 
EFFNEFEELFDEDDIQ [D42,46,49,53E] |  | 1.2266 fold of C-CSNAP (A1) | 0.3807 fold | 
GAGPYVDLDEAGGSTGLLMDLAANEKAVHADFFNDFEDLFDDDDIQ [B 7, CSNAP residues 12-57] | 1.1696 fold of C-CSNAP (A1) |  |  | Average fold change (CSN^ΔCSNAP complex; [2]): 1.0720 fold
DFFNEFEELFEDDDIQ [Position E13, C-CSNAP, Asp to Glu substitution D46,49,52E] | 0.6592 fold of C-CSNAP (A1) | 1.2426 fold of C-CSNAP (A1) |  | 
DFFNDFEELFEEEEIQ [D49,52,53,54,55E] |  | 1.1796 fold of C-CSNAP (A1) | 0.6658 fold | 
EFFNEFEELFDEEEIQ [D42,46,49,53,54,55E] |  | 1.0322 fold of C-CSNAP (A1) | 0.3621 fold | 
DFFNDFEDLFDDDEIQ [D 9, C-CSNAP, Asp to Glu substitution D55E] | 1.0265 fold of C-CSNAP (A1) | 1.0696 fold of C-CSNAP (A1) |  | 
DFFNEFEELFDEEEIQ [D46,49,53,54,55E] |  | 1.4630 fold of C-CSNAP (A1) | 0.6202 fold | 

Substance | Average fold change, intensities as fold of C-CSNAP (A1) (recombinant CSN complex) | Average fold change (CSN^ΔCSNAP complex; [1]) | Average fold change (recombinant CSN complex) | further results
EFFNEFEDLFEDDDIQ [Position D12, C-CSNAP, Asp to Glu substitution D42,52E] | 0.7025 fold of C-CSNAP (A1) | 1.0147 fold of C-CSNAP (A1) |  | 
EFFNEFEELFEDDDIQ [D42,46,49,52E] |  | 1.0318 fold of C-CSNAP (A1) | 0.5168 fold | 
DFFNDFEELFEDDDIQ [Position D21, C-CSNAP, Asp to Glu substitution D49,52E] | 0.6335 fold of C-CSNAP (A1) | 1.3626 fold of C-CSNAP (A1) |  | 
EFFNDFEDLFDEDDIQ [Position D13, C-CSNAP, Asp to Glu substitution D42,53E] | 0.7560 fold of C-CSNAP (A1) | 1.1346 fold of C-CSNAP (A1) |  | 
ADFFNDFEDLFDDDDIQ [A 2, CSNAP residues 41-57] | 0.9705 fold of C-CSNAP (A1) |  |  | Average fold change (CSN^ΔCSNAP complex; [2]): 0.9058 fold
EFFNEFEELFEEEEIQ [D42,46,49,52,53,54,56E] |  | 1.1160 fold of C-CSNAP (A1) | 0.5923 fold | 
DFFNDFEELFEDDEIQ [Position E19, C-CSNAP, Asp to Glu substitution D49,52,55E] | 0.6448 fold of C-CSNAP (A1) | 1.0909 fold of C-CSNAP (A1) |  | 
EFFNEFEDLFDDDEIQ [E 8, C-CSNAP, Asp to Glu substitution D42,46,55E] | 0.7616 fold of C-CSNAP (A1) | 0.9227 fold of C-CSNAP (A1) |  | 
DFWNDFEDLFDDDDIQ [Position C13, C-CSNAP, Phe to Trp substitution F44W] | 0.8173 fold of C-CSNAP (A1) | 1.2883 fold of C-CSNAP (A1) |  | 
DFFNDFEDAFDDDDIQ [C 4, C-CSNAP, Ala substitution L50A] | 0.5335 fold of C-CSNAP (A1) |  |  | Average fold change (CSN^ΔCSNAP complex; [2]): 0.8879 fold
EMFPEGAGPYVDLDEAGGSTGLLMDLAANEKAVHADFFNDFEDLFDDDDIQ [Position B12, CSNAP residues 7-57] | 0.8904 fold of C-CSNAP (A1) |  |  | Average fold change (CSN^ΔCSNAP complex; [2]): 1.1057 fold
HADFFNDFEDLFDDDDIQ [A 3, CSNAP residues 40-57] | 1.0326 fold of C-CSNAP (A1) |  |  | Average fold change (CSN^ΔCSNAP complex; [2]): 0.8215 fold
DFF-Aib-DFED-Aib-FDDDI-Aib-Q [Position H16, C-CSNAP with Aib incorporation (45,50,56)] | 0.4930 fold of C-CSNAP (A1) |  |  | intensities as fold of C-CSNAP (A1), Experiment #1 left (recombinant CSN complex; rCSN^WT peptide array, replicate: Experiment #1, left array): 0.3868 fold of C-CSNAP (A1); intensities as fold of C-CSNAP (A1), Experiment #1 right (recombinant CSN complex; rCSN^WT peptide array, replicate: Experiment #1, right array): 0.3074 fold of C-CSNAP (A1); intensities as fold of C-CSNAP (A1), Experiment #2 left (recombinant CSN complex; rCSN^WT peptide array, replicate: Experiment #2, left array): 0.3253 fold of C-CSNAP (A1); intensities as fold of C-CSNAP (A1), Experiment #2 right (recombinant CSN complex; rCSN^WT peptide array, replicate: Experiment #2, right array): 0.4113 fold of C-CSNAP (A1); intensities as fold of C-CSNAP (A1), Experiment #3 left (recombinant CSN complex; rCSN^WT peptide array, replicate: Experiment #3, left array): 0.4290 fold of C-CSNAP (A1); intensities as fold of C-CSNAP (A1), Experiment #3 right (recombinant CSN complex; rCSN^WT peptide array, replicate: Experiment #3, right array): 1.0982 fold of C-CSNAP (A1); Average fold change, intensities as fold of C-CSNAP (A1) (CSN^ΔCSNAP complex; [1]): 0.8483 fold
DLDEAGGSTGLLMDLAANEKAVHADFFNDFEDLFDDDDIQ [B 1, CSNAP residues 18-57] | 1.1704 fold of C-CSNAP (A1) |  |  | Average fold change (CSN^ΔCSNAP complex; [2]): 0.9126 fold
LMDLAANEKAVHADFFNDFEDLFDDDDIQ [Position A14, CSNAP residues 29-57] | 0.9262 fold of C-CSNAP (A1) |  |  | Average fold change (CSN^ΔCSNAP complex; [2]): 1.0726 fold
DFFNEFEELFEDEDIQ [D46,49,52,54E] |  | 0.9254 fold of C-CSNAP (A1) | 0.5934 fold | 
EFFNDFEELFDDDDIQ [Position D11, C-CSNAP, Asp to Glu substitution D42,49E] | 0.8480 fold of C-CSNAP (A1) | 1.0773 fold of C-CSNAP (A1) |  | 
YVDLDEAGGSTGLLMDLAANEKAVHADFFNDFEDLFDDDDIQ [B 3, CSNAP residues 16-57] | 1.1108 fold of C-CSNAP (A1) |  |  | Average fold change (CSN^ΔCSNAP complex; [2]): 0.9215 fold
DWFNDWEDLFDDDDIQ [Position C17, C-CSNAP, Phe to Trp substitution F43,47W] | 0.7959 fold of C-CSNAP (A1) | 1.5247 fold of C-CSNAP (A1) |  | 
EFFNEFEELFEDEDIQ [D42,46,49,52,54E] |  | 0.9563 fold of C-CSNAP (A1) | 0.5967 fold | 
